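These data come from cells grown in 96-well plates and exposed to compound for 48 hours at five concentrations. GI50 is the concentration that inhibits growth by half.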 The source made the active and inactive calls. Cut-off read from the data, not from the text of the source: active = GI50 up to about 1.1 µM and inactive = higher.
Tests used:
Assay in all cases: NCI tumour cell line growth inhibition, 48 h
SK-MEL-5 = test system: SK-MEL-5
SF-295 = test system: SF-295
SK-MEL-28 = test system: SK-MEL-28
NCI-H226 = test system: NCI-H226
RXF 393 = test system: RXF 393
LOX IMVI = test system: LOX IMVI
SR = test system: SR
EKVX = test system: EKVX
HT-29 = test system: HT-29
SN12C = test system: SN12C
NCI-H522 = test system: NCI-H522
HCT-15 = test system: HCT-15
OVCAR-4 = test system: OVCAR-4
NCI-H23 = test system: NCI-H23
OVCAR-8 = test system: OVCAR-8
SNB-75 = test system: SNB-75
786-0 = test system: 786-0
MDA-MB-231 = test system: MDA-MB-231
Hs-578T = test system: Hs-578T
UACC-257 = test system: UACC-257

| SMILES | GI50 (SK-MEL-5) | GI50 (SF-295) | GI50 (SK-MEL-28) | GI50 (NCI-H226) | GI50 (RXF 393) | GI50 (LOX IMVI) | GI50 (SR) | GI50 (EKVX) | GI50 (HT-29) | GI50 (SN12C) | GI50 (NCI-H522) | GI50 (HCT-15) [µM] | GI50 (OVCAR-4) | GI50 (NCI-H23) | GI50 (OVCAR-8) | GI50 (SNB-75) | GI50 (786-0) | GI50 (MDA-MB-231) | GI50 (Hs-578T) | GI50 (UACC-257) |
| --- | --- | --- | --- | --- | --- | --- | --- | --- | --- | --- | --- | --- | --- | --- | --- | --- | --- | --- | --- | --- |
| CC1=[N+]([O-])C(C)(C)N(O)C1(C)C | > 100 µM (inactive) | > 100 µM (inactive) | > 100 µM (inactive) | > 100 µM (inactive) | > 100 µM (inactive) | > 100 µM (inactive) | > 100 µM (inactive) | > 100 µM (inactive) | > 100 µM (inactive) | > 100 µM (inactive) | > 100 µM (inactive) | > 100 | > 100 µM (inactive) | > 100 µM (inactive) | > 100 µM (inactive) | > 100 µM (inactive) | > 100 µM (inactive) | > 100 µM (inactive) |  |  |
| CCOC(=O)N[C@H]1CCc2cc(OC)c(OC)c(OC)c2-c2ccc(SC)c(=O)cc21 | < 0.01 µM (active) | < 0.01 µM (active) | 0.746 µM (active) | 0.163 µM (active) | < 0.01 µM (active) | < 0.01 µM (active) | < 0.01 µM (active) | 29.9 µM (inactive) | < 0.01 µM (active) | < 0.0287 µM (active) | < 0.01 µM (active) | < 0.01 | 16 µM (inactive) | < 0.01 µM (active) | < 0.01 µM (active) | < 0.0434 µM (active) | < 0.01 µM (active) |  | < 0.01 µM (active) | 16.6 µM (inactive) |
| Cn1c(-c2ccc(C=O)o2)ccc1-c1ccc(C=O)o1 | 30.9 µM (inactive) | 58.7 µM (inactive) | 40.1 µM (inactive) | 76.4 µM (inactive) | > 100 µM (inactive) | 31.7 µM (inactive) | 30.9 µM (inactive) | 54.1 µM (inactive) | 36.1 µM (inactive) | 37.6 µM (inactive) | 1.68 µM (inactive) | 34 | 53.1 µM (inactive) | 45.7 µM (inactive) | 30.4 µM (inactive) | 39.5 µM (inactive) | 61.1 µM (inactive) | 38 µM (inactive) |  | 51.4 µM (inactive) |
| CCOP(=O)(OCC)C(NC(=O)C(C(F)(F)F)C(F)(F)F)c1ccccc1 (configuration not stated) | > 100 µM (inactive) | > 100 µM (inactive) | > 100 µM (inactive) |  | > 100 µM (inactive) | > 100 µM (inactive) | 59.6 µM (inactive) | > 100 µM (inactive) | > 100 µM (inactive) | > 100 µM (inactive) |  | > 100 | > 100 µM (inactive) | > 100 µM (inactive) | > 100 µM (inactive) | > 100 µM (inactive) | > 100 µM (inactive) | > 100 µM (inactive) | > 100 µM (inactive) | > 100 µM (inactive) |
| COC(=O)CSC(=S)Nc1nnc(NC(=S)SCOC(C)=O)n1C(=S)SCC(=O)OC | > 100 µM (inactive) | > 100 µM (inactive) | > 100 µM (inactive) |  | > 100 µM (inactive) | > 100 µM (inactive) | > 100 µM (inactive) | > 100 µM (inactive) | > 100 µM (inactive) | > 100 µM (inactive) |  | > 100 | > 100 µM (inactive) | > 100 µM (inactive) |  |  | > 100 µM (inactive) |  | > 100 µM (inactive) | > 100 µM (inactive) |
| COC1(OC)N=C(N)C2(C#N)C(C)=C3NCN(C)N=C3C12C#N (configuration not stated) | > 100 µM (inactive) | > 100 µM (inactive) | > 100 µM (inactive) | > 100 µM (inactive) | > 100 µM (inactive) | > 100 µM (inactive) |  | > 100 µM (inactive) | > 100 µM (inactive) | > 100 µM (inactive) | > 100 µM (inactive) | > 100 |  | > 100 µM (inactive) | > 100 µM (inactive) | > 100 µM (inactive) | > 100 µM (inactive) | > 100 µM (inactive) | > 100 µM (inactive) | > 100 µM (inactive) |
| CCOC(=O)c1cc2nc3ccccc3c(=O)n2c2ccccc12 | > 10 µM (inactive) | > 10 µM (inactive) | > 10 µM (inactive) | > 10 µM (inactive) | > 10 µM (inactive) | > 10 µM (inactive) |  | > 10 µM (inactive) | > 10 µM (inactive) | > 10 µM (inactive) | > 10 µM (inactive) | > 10 | > 10 µM (inactive) | > 10 µM (inactive) | > 10 µM (inactive) | 6.32 µM (inactive) | > 10 µM (inactive) | > 10 µM (inactive) | > 10 µM (inactive) | > 10 µM (inactive) |
| O=C(Nc1ccccc1)Oc1ccc(C(=S)Nc2ccc(Br)cc2)cc1 | 16 µM (inactive) | 20.6 µM (inactive) | 19.4 µM (inactive) |  |  | 11.9 µM (inactive) | 13.4 µM (inactive) | 5.13 µM (inactive) | 16.8 µM (inactive) |  | 11 µM (inactive) | 16.2 | 14.3 µM (inactive) | 17.5 µM (inactive) | 12.6 µM (inactive) |  | 19.4 µM (inactive) |  | 22.9 µM (inactive) | 20.5 µM (inactive) |
| OC(c1ccc(F)cc1)C(F)(F)c1nc(-c2ccccc2)no1 (configuration not stated) |  |  | 21.1 µM (inactive) |  |  | 86.5 µM (inactive) |  | 22.9 µM (inactive) | 17.6 µM (inactive) | 21.6 µM (inactive) | 2.44 µM (inactive) | 23.9 | 20.7 µM (inactive) | 26.1 µM (inactive) | > 100 µM (inactive) |  | 20.1 µM (inactive) | 2.43 µM (inactive) | 30.5 µM (inactive) | 19.6 µM (inactive) |
| CN1CCCCC1CCN1CCCCC1 (configuration not stated) | > 100 µM (inactive) | > 100 µM (inactive) | > 100 µM (inactive) | > 100 µM (inactive) | > 100 µM (inactive) | > 100 µM (inactive) |  | > 100 µM (inactive) | > 100 µM (inactive) | > 100 µM (inactive) | > 100 µM (inactive) | > 100 | > 100 µM (inactive) | > 100 µM (inactive) | > 100 µM (inactive) | > 100 µM (inactive) | > 100 µM (inactive) | > 100 µM (inactive) | > 100 µM (inactive) | > 100 µM (inactive) |
| COC(=O)[C@H](Cc1ccccc1)NC(=O)N1CCN(C(=O)N[C@@H](Cc2ccccc2)C(=O)OC)CCN(C(=O)N[C@@H](Cc2ccccc2)C(=O)OC)CC1 | > 100 µM (inactive) | > 100 µM (inactive) | > 100 µM (inactive) | > 100 µM (inactive) | > 100 µM (inactive) | > 100 µM (inactive) |  | > 100 µM (inactive) | > 100 µM (inactive) | > 100 µM (inactive) | > 100 µM (inactive) | > 100 | > 100 µM (inactive) | > 100 µM (inactive) | > 100 µM (inactive) | > 100 µM (inactive) | > 100 µM (inactive) |  | > 100 µM (inactive) | > 100 µM (inactive) |
| O=[N+]([O-])c1cc2c(c3nonc13)OCCCCO2 | 8.61 µM (inactive) | 17.5 µM (inactive) | 9.89 µM (inactive) | 14.4 µM (inactive) | 7.74 µM (inactive) | 2.81 µM (inactive) |  | 18.2 µM (inactive) | 3.88 µM (inactive) | 4.6 µM (inactive) | 4.39 µM (inactive) | 2.94 | 14.2 µM (inactive) | 10.2 µM (inactive) | 4.36 µM (inactive) | 10.6 µM (inactive) | 2.02 µM (inactive) | 3.31 µM (inactive) | 12.3 µM (inactive) | 15.5 µM (inactive) |
| Cc1cc(S(=O)(=O)O)ccc1/N=N/c1ccc(/N=N/c2c(O)ccc3ccccc23)c(C)c1 | > 100 µM (inactive) | 94.8 µM (inactive) | 67.3 µM (inactive) | 85.3 µM (inactive) | > 100 µM (inactive) | 26.9 µM (inactive) |  | 82 µM (inactive) | 70.3 µM (inactive) | 89.7 µM (inactive) | 26 µM (inactive) | 32.1 | 51.2 µM (inactive) | 33.2 µM (inactive) | 49.8 µM (inactive) | 41.6 µM (inactive) | 21.3 µM (inactive) | 20.5 µM (inactive) | > 100 µM (inactive) | > 100 µM (inactive) |
| COc1cc2c(cc1OC)C(=O)/C(=C/c1cc(Cl)cc(Cl)c1)C2 | 2.54 µM (inactive) | 2.49 µM (inactive) | 61.7 µM (inactive) | 3.87 µM (inactive) | 7.41 µM (inactive) | 4.24 µM (inactive) |  | 19.8 µM (inactive) | 2.59 µM (inactive) | 5.93 µM (inactive) | 2.04 µM (inactive) | 3.03 | 17.1 µM (inactive) | 7.66 µM (inactive) |  | 1.86 µM (inactive) | 4.73 µM (inactive) | 11.3 µM (inactive) | 11.3 µM (inactive) | 26 µM (inactive) |
| O=C(O)c1ccccn1 [2-PICOLINIC ACID] | > 100 µM (inactive) | > 100 µM (inactive) | > 100 µM (inactive) | > 100 µM (inactive) | > 100 µM (inactive) |  | > 100 µM (inactive) | > 100 µM (inactive) | > 100 µM (inactive) | > 100 µM (inactive) |  | > 100 | > 100 µM (inactive) | > 100 µM (inactive) | > 100 µM (inactive) | > 100 µM (inactive) | > 100 µM (inactive) | > 100 µM (inactive) | > 100 µM (inactive) | > 100 µM (inactive) |
| Clc1ccccc1C(c1ccccc1)(c1ccccc1)n1ccnc1 [CLOTRIMAZOLE] | 7.78 µM (inactive) | 9.95 µM (inactive) | 16.2 µM (inactive) |  | 17.4 µM (inactive) |  |  | 7.93 µM (inactive) | 9.25 µM (inactive) |  | 6.38 µM (inactive) | 8.67 | 9.82 µM (inactive) | 13 µM (inactive) | 11 µM (inactive) | 16.5 µM (inactive) | 14.9 µM (inactive) | 14.9 µM (inactive) | 15.1 µM (inactive) | 10.8 µM (inactive) |
